Results from US8981179B2, “Transgenic non-human animal and uses thereof” (Sanofi, priority 2009, dated 2015).

Key:
[1] = molecular target: T1, glucagon-like peptide 1 receptor (GLP-1R) (Mus musculus, UniProt O35659); experiment: Induction of luciferase reporter by GLP-1R agonist in CRE-Luc mice (bioimaging, tissue homogenates); format: in vivo
T1 construct: from tissue; host or cells: whole animal; bioimaging and tissue homogenates, signal in the pancreas
T1 sequence (O35659 22-463): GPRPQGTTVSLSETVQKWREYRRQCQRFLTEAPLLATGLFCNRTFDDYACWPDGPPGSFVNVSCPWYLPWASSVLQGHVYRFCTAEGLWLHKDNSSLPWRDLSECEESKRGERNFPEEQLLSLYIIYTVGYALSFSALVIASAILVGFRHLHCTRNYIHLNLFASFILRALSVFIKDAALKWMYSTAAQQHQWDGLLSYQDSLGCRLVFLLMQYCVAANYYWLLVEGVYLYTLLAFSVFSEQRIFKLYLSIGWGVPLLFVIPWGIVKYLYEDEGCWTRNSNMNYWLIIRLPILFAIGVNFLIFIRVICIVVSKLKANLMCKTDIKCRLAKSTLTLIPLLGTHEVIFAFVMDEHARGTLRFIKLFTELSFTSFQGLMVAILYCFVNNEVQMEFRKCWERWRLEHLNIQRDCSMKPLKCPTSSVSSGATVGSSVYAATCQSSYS
Procedure: Transgene activation co-localizes with tissue specific receptor activation as exemplified by the induction of luciferase reporter by the glucagon-like peptide 1 receptor (GLP-1R) agonist, AVE0010, which was studied in three independent lines of CRE-Luc mice (FIG. 28). The GLP-1R is Gs coupled. Baseline images were acquired on day 1. On day 2, mice were treated with AVE0010 (0.1 mg/kg, sc) and imaged after 4 hours. Folds of induction over baseline were indicated at the bottom. […] Luciferase activities in 8 different tissues were measured for lines 11, 16 and 90 (FIG. 29) following treatment with AVE0010 (0.1 mg/kg, s.c.) for 4 hours. […] The activity of AVE0010 is limited to the pancreas even though GLP-1R is found in different tissue types.
The induction of Cre-Luc by AVE0010 is likely beta-cell mediated. The effects of the beta-cell toxin streptozotocin (STZ) on the induction of CRE-Luc by AVE0010 was investigated (FIG. 30). Male CRE-luc mice were imaged before and after AVE0010 (0.1 mg/kg, sc) treatment. […] Then, the animals were treated with vehicle or STZ (200 mpk, ip). Four days later, they were imaged again after AVE0010 treatment.

[2] = Blood glucose in unfasted CRE-luc mice; format: in vivo, mouse; conditions: line 11, AVE0010 0.1 mg/kg, sc
Procedure: The induction of CRE-Luc by AVE0010 is likely beta-cell-specific (FIG. 31). Animals were treated as described in FIG. 30. Blood glucose levels were measured by tail vein nicking on unfasted mice. Glucose levels were read on a Bayer glucometer. Glucose levels are shown as mg glucose/[…]. Fold induction is the luciferase bioimaging levels of AVE10 dosing versus the baseline signals. Blood glucose levels (BG) were increased by STZ (upper left panel). Non-fasting BG levels were reduced by AVE0010 (0.1 mg/kg, sc).

plasma cAMP = conditions: Balb/c mice, 10 mg/kg, blood harvested after 20 minutes; cited from earlier work
[3] = molecular target: T2, adrenoceptor beta3 (Adrb3) (Mus musculus, UniProt P25962); experiment: Induction of luciferase by Adrb3 agonist in CRE-Luc mice (tissue homogenates, bioimaging); format: in vivo; conditions: 1 mg/kg, ip
T2 construct: from tissue; host or cells: whole animal; luciferase read in tissue homogenates (adipose tissue, lung and others) and by bioimaging
Procedure: The luciferase assay was performed in tissue homogenates.

CB1 = molecular target: T3, CB1 (Mus musculus, UniProt P47746); experiment: Primary cortical neurons CreLuc luciferase assay, Gi modulation by CB1 agonist; format: cell-based
T3 construct: endogenous in cells; host or cells: primary cortical neurons, E18, CreLuc mouse lines 69, 187, 175, 219
Procedure: However, to increase the signal window even wider, rolipram (blocks the breakdown of cAMP) was used in combination with forskolin. Primary cortical neurons were isolated from E18 embryos from line 187 which was previously determined to have inducible brain and spinal cord expression. The assay, in triplicates, was run at day 7 in culture for 6 hours. A dose curve, 10 μM down to 1 nM, for AMN082 was run in combination with 50 μM forskolin and 10 μM rolipram. The assay was read on a TopCount luminometer with Bright Glo substrate (Promega). […] Gi modulation of luciferase expression in primary cortical neurons from different CreLuc lines by the CB1 agonist, CP 55,940 was performed in the presence of forskolin and rolipram (FIG. 15). Primary cortical neurons were harvested from lines 69, 187, 175 and 219 at E18. All lines used were previously determined to have inducible luciferase expression levels in whole brain tissue extracts (data not shown). The assays were run on day three in culture. The CB1 agonist was used at 10 μM, forskolin at 5 μM and rolipram at 10 μM. […] Bright Glo luciferase assay substrate was then added, and the assay read on a Topcount luminometer. […]
Gi modulation of luciferase in primary cortical neurons from CreLuc mice by the CB1 agonist, CP 55,940 was in a dose-dependent manner (FIG. 15B). […] The assay was read on a TopCount with BrightGlo (Promega) at 8 hours.

mGluR7 [4] = molecular target: T4, mGluR7 (Mus musculus, UniProt Q68ED2); experiment: Whole brain slice luminescence, Gi agonist with isoproterenol; format: cell-based; parameters: from tissue; host or cells: hippocampal brain slices, CreLuc mouse line 187; conditions: line 187, 1 uM AMN082 in combination with 1 uM ISO
Procedure: Whole brain slices were used to show the effects of compounds on luminescence in CreLuc mice (FIG. 8A, 8B). In general, brains from CreLuc mice can be harvested and then either cut into slices on a microtome or various subregions can also be dissected out and then sliced on a microtome. The slices can then be incubated with different compounds such as forskolin and rolipram, or GPCR specific compounds. Luciferase levels can then be measured with an IVIS bioimager or a photomultiplier with a carousel to take quantitative timecourse measurements.
Brain slices from the hippocampal region of CreLuc mice (line #187) were incubated with 1 uM isoproterenol (Sigma, cat#5627) for 2 days. […] (FIG. 8A, bottom panel). Thus, isoproterenol was used to increase the luciferase signal window which allows for screening GPCR specific compounds such as Gi agonists. AMN082 (AMN, Tocris Bioscience, Cat. No. 2385) is an mGluR7 agonist and mGluR7 is a receptor that is coupled to Gi. When brain slices were treated with 1 uM ISO in combination with 1 uM AMN082, the luciferase signal was diminished in comparison to ISO treatment alone.

mGluR7 [5] = molecular target: T4, mGluR7; experiment: Primary cortical neurons CreLuc luciferase assay, Gi modulation via mGluR7; format: cell-based; parameters: endogenous in cells; host or cells: primary cortical neurons, E18 embryos, CreLuc mouse line 187
Excerpt: (§1) A general schematic of the workflow for the isolation and compound treatment of primary neuronal cells from the CreLuc model is depicted in FIG. 9. Cortices or other brain subregions are removed from embryos, usually embryonic (E) day 17 or 18, but also as early as E14. The individual neurons are then isolated and plated onto 96 well assay plates. Assays are run either in triplicate or quadruplicate. The assays are run from day 3 in culture up until day 7 or day 10 in culture depending on the expression levels of the target GPCR. Compounds are added to the plates then at a set timepoint, Bright Glo (Promega, Cat #E2610) is added to the plates and the assay is then run on a TopCount or other luminometer.
Primary cell cultures from the CreLuc mice may be used to screen compounds that are capable of modulating Gi coupled receptors. […] Cortical neurons were harvested from E18 embryos. The assay was run at day 3 in culture. Forskolin was used at 10 μM to give a larger signal window to be used to detect Gi activity. The mGluR7 agonist, AMN082 was used in combination with forskolin at 1 nM, 10 nM, 100 nM and 1 μM. The assay was read on a TopCount with Bright Glo (Promega) at 4 hours, and 8 hours. […] The CreLuc mice can be used to screen for compounds that modulate Gq coupled receptors.
However, to increase the signal window even wider, rolipram (blocks the breakdown of cAMP) was used in combination with forskolin. Primary cortical neurons were isolated from E18 embryos from line 187 which was previously determined to have inducible brain and spinal cord expression. The assay, in triplicates, was run at day 7 in culture for 6 hours. A dose curve, 10 μM down to 1 nM, for AMN082 was run in combination with 50 μM forskolin and 10 μM rolipram. The assay was read on a TopCount luminometer with Bright Glo substrate (Promega). […] All lines used were previously determined to have inducible luciferase expression levels in whole brain tissue extracts (data not shown). […] Bright Glo luciferase assay substrate was then added, and the assay read on a Topcount luminometer. […]

[6] = molecular target: T5, D1 dopamine receptors (DRD1) (Mus musculus, UniProt Q61616); experiment: Primary cortical neurons CreLuc luciferase assay, Gs modulation via DRD1; format: cell-based; conditions: 4 hours
T5 construct: Neurons were isolated from the cortices of line 187 E18 embryos; endogenous in cells; host or cells: primary cortical neurons (E18) and striatal neurons (E14), CreLuc mouse line 187
Excerpt: as §1
The assay was run in triplicates on day three in culture. Forskolin was used at 5 μM, rolipram at 10 μM and the Gs agonists, ADβR-isoproterenol; and Dopamine-SKF82958 (MFG, Cat #C130) at 10 μM. At 4 hours, Bright Glo was added and the assays run on a Topcount. Forskolin is a general activator of cAMP.

T4 sequence (Q68ED2 35-915): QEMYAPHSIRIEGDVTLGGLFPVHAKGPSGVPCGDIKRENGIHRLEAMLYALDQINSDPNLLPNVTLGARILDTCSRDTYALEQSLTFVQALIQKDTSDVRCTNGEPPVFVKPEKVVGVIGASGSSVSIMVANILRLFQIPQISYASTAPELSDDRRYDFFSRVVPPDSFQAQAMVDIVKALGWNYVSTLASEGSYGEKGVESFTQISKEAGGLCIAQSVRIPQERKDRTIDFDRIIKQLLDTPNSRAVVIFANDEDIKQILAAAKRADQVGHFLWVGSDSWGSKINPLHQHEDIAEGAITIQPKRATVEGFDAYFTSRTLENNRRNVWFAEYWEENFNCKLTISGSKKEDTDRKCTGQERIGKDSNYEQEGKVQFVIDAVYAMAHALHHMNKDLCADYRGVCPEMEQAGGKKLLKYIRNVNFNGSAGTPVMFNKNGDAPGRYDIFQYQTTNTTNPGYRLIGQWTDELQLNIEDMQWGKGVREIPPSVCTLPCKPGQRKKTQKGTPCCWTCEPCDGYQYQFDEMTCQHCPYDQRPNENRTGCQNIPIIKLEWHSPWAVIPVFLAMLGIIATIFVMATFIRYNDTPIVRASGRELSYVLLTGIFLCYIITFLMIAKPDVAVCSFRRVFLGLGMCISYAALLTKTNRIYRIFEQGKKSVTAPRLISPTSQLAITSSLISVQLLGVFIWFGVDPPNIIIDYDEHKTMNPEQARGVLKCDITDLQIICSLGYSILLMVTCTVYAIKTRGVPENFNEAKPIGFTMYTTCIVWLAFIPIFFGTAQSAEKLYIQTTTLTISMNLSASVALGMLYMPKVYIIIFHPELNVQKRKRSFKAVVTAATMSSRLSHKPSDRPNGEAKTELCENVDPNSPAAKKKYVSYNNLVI
T3 sequence (P47746 whole entry): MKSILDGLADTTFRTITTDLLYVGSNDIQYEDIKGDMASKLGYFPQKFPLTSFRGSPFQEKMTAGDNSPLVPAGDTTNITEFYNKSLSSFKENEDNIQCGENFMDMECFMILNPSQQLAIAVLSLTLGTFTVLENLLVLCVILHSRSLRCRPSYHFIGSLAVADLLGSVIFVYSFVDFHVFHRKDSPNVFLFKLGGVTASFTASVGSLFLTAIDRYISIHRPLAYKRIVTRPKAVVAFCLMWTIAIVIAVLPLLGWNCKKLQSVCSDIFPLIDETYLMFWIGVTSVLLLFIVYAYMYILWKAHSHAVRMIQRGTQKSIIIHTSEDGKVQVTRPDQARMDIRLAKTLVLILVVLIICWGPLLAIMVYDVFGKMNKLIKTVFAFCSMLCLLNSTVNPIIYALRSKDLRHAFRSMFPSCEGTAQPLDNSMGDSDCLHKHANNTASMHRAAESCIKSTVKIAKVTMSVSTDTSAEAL
T2 sequence (P25962 whole entry): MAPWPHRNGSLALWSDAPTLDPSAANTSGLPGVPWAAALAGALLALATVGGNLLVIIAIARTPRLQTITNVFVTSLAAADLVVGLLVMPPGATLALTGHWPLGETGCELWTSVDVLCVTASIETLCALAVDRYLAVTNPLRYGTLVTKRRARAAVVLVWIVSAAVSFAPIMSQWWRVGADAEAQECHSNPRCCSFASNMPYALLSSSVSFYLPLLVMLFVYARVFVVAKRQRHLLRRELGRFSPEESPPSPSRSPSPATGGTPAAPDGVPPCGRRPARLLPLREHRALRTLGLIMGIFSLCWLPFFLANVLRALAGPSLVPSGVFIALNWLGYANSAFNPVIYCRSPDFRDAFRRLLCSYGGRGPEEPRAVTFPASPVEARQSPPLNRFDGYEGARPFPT
T5 sequence (Q61616 whole entry): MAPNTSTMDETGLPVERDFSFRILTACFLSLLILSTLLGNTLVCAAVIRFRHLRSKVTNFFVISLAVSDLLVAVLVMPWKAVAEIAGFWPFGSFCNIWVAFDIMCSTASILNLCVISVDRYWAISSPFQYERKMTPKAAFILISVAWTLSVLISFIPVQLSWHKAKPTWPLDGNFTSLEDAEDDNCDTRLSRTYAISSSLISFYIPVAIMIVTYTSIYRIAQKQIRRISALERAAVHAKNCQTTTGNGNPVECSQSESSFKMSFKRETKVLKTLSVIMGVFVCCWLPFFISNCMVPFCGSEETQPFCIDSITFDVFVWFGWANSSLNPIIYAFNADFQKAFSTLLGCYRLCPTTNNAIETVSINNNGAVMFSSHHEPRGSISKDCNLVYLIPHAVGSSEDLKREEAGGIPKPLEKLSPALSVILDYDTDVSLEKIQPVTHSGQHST

## AVE0010: glucagon-like peptide 1 receptor (GLP-1R) agonist
[1]; lines 11, 16 and 90, 0.1 mg/kg, s.c., 4 hours
  luciferase activity in tissue homogenates of 8 tissues: pancreas-specific induction of luciferase
[1]; male line 11, 0.1 mg/kg, sc
  bioimaging response of mice before and after treatment: responsive
[1]; three independent lines, 0.1 mg/kg, sc, imaged after 4 hours
  transgene activation in the pancreas (bioimaging): strong induction
[2]
  non-fasting BG levels: reduced

## COc1ccc(C2CNC(=O)NC2)cc1O[C@H]1C[C@@H]2CC[C@H]1C2 [CP-80,633]
Plasma cAMP
  plasma cAMP levels: significantly increase

## C[C@H](Cc1ccc2c(c1)OC(C(=O)[O-])(C(=O)[O-])O2)NC[C@H](O)c1cccc(Cl)c1.[Na+].[Na+] [CL316,243]
[3]; 4 lines, BLI 4-5 hours after treatment
  induction via bioimaging: visible induction
[3]; 7 of 12 independent transgenic lines screened
  induction of luciferase in the adipose tissue and lung (tissue homogenates): greater than 10 fold

## CCCCCCC(C)(C)c1ccc([C@@H]2C[C@H](O)CC[C@H]2CCCO)c(O)c1 [CP 55,940]
CB1; cortical neurons line 187, 10 μM, 1 μM and 100 nM, forskolin and rolipram 10 μM, 8 hours
  luciferase levels, agonist plus forskolin and rolipram versus forskolin and rolipram alone: Significant decreases
CB1; lines 69, 187, 175 and 219, 10 μM with forskolin 5 μM and rolipram 10 μM, four and twenty-four hours
  luciferase signal with addition of CB1 agonist in different CreLuc lines: Decreased signals

## Cl.Cl.c1ccc(C(NCCNC(c2ccccc2)c2ccccc2)c2ccccc2)cc1 [AMN082]
mGluR7 [4]
  luciferase signal in brain slices in comparison to ISO treatment alone: diminished
mGluR7 [5]; cortical neurons line 187, day 3, 10 μM forskolin, 100 nM and 1 μM AMN082, 4 hours and 8 hours
  luciferase levels versus forskolin only: Significant decreases
mGluR7 [5]; cortical neurons line 187, day 3, in combination with 10 μM forskolin, 4 hours, read-out: calculated EC50 (Gi modulation of luciferase)
  EC50: 174 nM
mGluR7 [5]; cortical neurons line 187, day 7, 6 hours, 50 μM forskolin and 10 μM rolipram, at 1 μM, 100 nM and 1 nM, p<0.0005
  decreases in luciferase levels vs. forskolin and rolipram controls: 59-61%

## C=CCN1CCc2c(cc(O)c(O)c2Cl)C(c2ccccc2)C1 (stereo not drawn) [SKF82958]
[6]; cortical neurons line 187, 10 μM with 10 μM rolipram
  induction of luciferase in combination with rolipram compared to rolipram alone: 2 fold
[6]; cortical neurons line 187, day 3, 10 μM
  luciferase levels, agonist alone: did not significantly increase
